Laboratory results reported in patent US5296480A, “Angiotensin II receptor blocking 2,3,6-substituted 5,6,7,8-tetra-hydro-pyrido[4,3]pyrimidin-4(3H)-ones” (American Cyanamid Company, priority 1993, dated 1994).

Molecular target: T1, Angiotensin II Receptor (Bos taurus, UniProt P25104)
T1 construct: added in 20 ul to wells before the introduction of tissue membranes; from tissue; host or cells: microsomal membranes of an unnamed tissue
T1 sequence (P25104 1-359): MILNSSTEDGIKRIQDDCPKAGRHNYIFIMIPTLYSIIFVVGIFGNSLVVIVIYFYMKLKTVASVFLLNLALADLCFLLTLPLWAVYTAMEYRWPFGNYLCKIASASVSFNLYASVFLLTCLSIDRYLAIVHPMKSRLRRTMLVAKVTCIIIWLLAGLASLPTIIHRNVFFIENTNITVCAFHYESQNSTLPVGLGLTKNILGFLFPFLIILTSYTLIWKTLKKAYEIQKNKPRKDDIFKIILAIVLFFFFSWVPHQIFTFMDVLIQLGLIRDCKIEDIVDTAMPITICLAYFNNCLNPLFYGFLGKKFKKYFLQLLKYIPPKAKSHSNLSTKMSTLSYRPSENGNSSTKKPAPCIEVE
Assay: Receptor Binding Assay: displacement of [^125 I](Sar^1,Ile^8)AngII from microsomal membranes
Conditions: pH 7.4, 60 min, room temperature
Procedure: Binding of [^125 I](Sar^1, Ile^8)AngII
The binding of [^125 I](Sar^1,Ile^8)AngII to microsomal membranes is initiated by the addition of reconstituted membranes (1:10 vols.) in freshly made 50.0 mMTris.HCl buffer, pH 7.4 containing 0.25% heat inactivated bovine serum albumin (BSA): 80 ul membrane protein (10 to 20 ug/assay) to wells already containing 100 ul of incubation buffer (as described above) and 20 ul [^125 I](Sar^1,Ile^8)AngII (Specific Activity, 2200 Ci/mmole). Non-specific binding is measured in the presence of 1.0 uM unlabeled (Sar^1,Ile^8 )AngII, added in 20 ul volume. Specific binding for [^125 I](Sar^1,Ile^8) AngII is greater than 90%. In competition studies, experimental compounds are diluted in dimethylsulfoxide (DMSO) and added in 20 ul to wells before the introduction of tissue membranes. This concentration of DMSO is found to have no negative effects on the binding of [^125 I](Sar^1,Ile^8) AngII to the membranes. Assays are performed in triplicate. […] Presoaking the filter sheet in 0.1% polyethylenemine in normal saline (PEI/Saline) greatly reduces the radioactivity retained by the filter blanks. […] The filters are removed from the filter grid and counted in a Parkard® Cobra Gamma Counter for 1 min. […] The binding data are analyzed by the non-linear interactive "LUNDON-1" program (LUNDON SOFTWARE Inc., Cleveland, Ohio U.S.A.). […]

- IC50: 51 nM
SMILES: CCCCc1nc2c(c(=O)n1Cc1ccc(-c3ccccc3-c3nn[nH]n3)cc1)CN(C(=O)c1cccnc1)CC2 [Example 10]
